Experimental data from patent US7612087B2, “Heterocyclic compounds as inhibitors of beta-lactamases” (Novexel, priority 2002, dated 2009).
Where a name gives a salt, the structure may show the parent alone. Read-outs that look alike come from different tables or passages of the source.

Assays:
β-lactamase TEM1 = target: T1, β-lactamase TEM1 (Escherichia coli, UniProt P62593); assay: Inhibition of isolated β-lactamase Tem-1 (Nitrocefin hydrolysis); type: biochemical, E.coli 250HT21; details: 100 μM Nitrocefin, 50 mM sodium phosphate buffer pH7.0, 37° C.
T1 construct: The β-lactamases are isolated from bacterial strains which are resistant to penicillins and cephalosporins; endogenous in cells; host or cells: E. coli 250HT21 (natural producer; French-press lysate, 100,000 g supernatant)
Summary of the method: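 TEM-1 from soluble extract of E. coli 250HT21, normalized enzyme, 100 μM Nitrocefin in 50 mM sodium phosphate pH 7.0 at 37 °C. Initial-rate hydrolysis read kinetically at 485 nm, with and without 5 min enzyme–inhibitor preincubation. CI50 from 6 or 8 concentrations in duplicate.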

β-lactamase P99 = target: T2, β-lactamase P99 (Enterobacter cloacae, UniProt P05364); assay: biochemical
T2 construct: The β-lactamases are isolated from bacterial strains which are resistant to penicillins and cephalosporins; endogenous in cells; host or cells: Enterobacter cloacae 293HT6 (natural producer; French-press lysate, 100,000 g supernatant)
Summary of the method: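 P99 β-lactamase, taken from the soluble fraction of an Enterobacter cloacae 293HT6 lysate, was assayed at 37° C. in 50 mM sodium phosphate buffer pH7.0 with 100 μM Nitrocefin as the chromogenic substrate. Hydrolysis was followed kinetically at 485 nm at initial speed, with and without a 5 mn enzyme–inhibitor preincubation. Inhibitors were tested at 6 or 8 concentrations in duplicate, and IC50 was fitted with GraFit.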

E. coli 250CF1 (Tem3) = assay: microbe, parasite or virus in culture; type: cell-based; details: compound at 5 mg/l, 24 hours at 37° C.; for MIC of Piperacillin in combination with the compound: Trial 4, 250CF1 Tem3; for MIC of Cefotaxime in combination with the compound: Trial 4, 250CF1 E. coli Tem3
Summary of the method: (§1)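 Strains were seeded into liquid-medium dilutions of β-lactamine, each supplemented with a fixed 5 mg/l of test compound, and held 24 hours at 37° C in a heating chamber. Minimal inhibitory concentration was the level at which bacterial development was wholly absent.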

[1] = tested on: E. cloacae 293HT6 (Class C); assay: MIC, micro-dilution in liquid medium, β-lactamine with product at 5 mg/l; type: cell-based; details: compound at 5 mg/l, 24 hours at 37° C.; for MIC of Piperacillin in combination with the compound: Trial 9, 293HT6 Class; for MIC of Cefotaxime in combination with the compound: Trial 9, 293HT6 E. cloacae Class C
Summary of the method: as §1

E. coli 250BE1 (SHV4) = assay: as above; type: cell-based; details: compound at 5 mg/l, 24 hours at 37° C.; for MIC of Piperacillin in combination with the compound: Trial 7, 250BE1 SHV4; for MIC of Cefotaxime in combination with the compound: Trial 7, 250BE1 E. coli SHV4
Summary of the method: as §1

E. coli 250HT21 (Tem1) = assay: as above; type: cell-based; details: compound at 5 mg/l, 24 hours at 37° C.; for MIC of Piperacillin in combination with the compound: Trial 2, 250HT21 Tem1; for MIC of Cefotaxime in combination with the compound: Trial 2, 250HT21 E. coli Tem1
Summary of the method: as §1

E. coli 250HT22 (Tem2) = assay: as above; type: cell-based; details: compound at 5 mg/l, 24 hours at 37° C.; for MIC of Piperacillin in combination with the compound: Trial 3, 250HT22 Tem2; for MIC of Cefotaxime in combination with the compound: Trial 3, 250HT22 E. coli Tem2
Summary of the method: as §1

[2] = tested on: E. coli 250HT23 (Class D); assay: as above; type: cell-based; details: compound at 5 mg/l, 24 hours at 37° C.; for MIC of Piperacillin in combination with the compound: Trial 8, 250HT23 Class D; for MIC of Cefotaxime in combination with the compound: Trial 8, 250HT23 E. coli Class D
Summary of the method: as §1

E. coli 250HT26 (SHV1) = assay: as above; type: cell-based; details: compound at 5 mg/l, 24 hours at 37° C.; for MIC of Piperacillin in combination with the compound: Trial 6, 250HT26 SHV1; for MIC of Cefotaxime in combination with the compound: Trial 6, 250HT26 E. coli SHV1
Summary of the method: as §1

E. coli 250SJ1 (Tem7) = assay: as above; type: cell-based; details: compound at 5 mg/l, 24 hours at 37° C.; for MIC of Piperacillin in combination with the compound: Trial 5, 250SJ1 Tem7; for MIC of Cefotaxime in combination with the compound: Trial 5, 250SJ1 E. coli Tem7
Summary of the method: as §1

[3] = tested on: P. aeruginosa 391HT7 (PSE); assay: as above; type: cell-based; details: compound at 5 mg/l, 24 hours at 37° C.; for MIC of Piperacillin in combination with the compound: Trial 11, 391HT7 PSE; for MIC of Cefotaxime in combination with the compound: Trial 11, 391HT7 P. aeruginosa PSE
Summary of the method: as §1

[4] = tested on: P. aeruginosa 391HT8 (PSE); assay: as above; type: cell-based; details: compound at 5 mg/l, 24 hours at 37° C.; for MIC of Piperacillin in combination with the compound: Trial 12, 391HT8 PSE; for MIC of Cefotaxime in combination with the compound: Trial 12, 391HT8 P. aeruginosa PSE
Summary of the method: as §1

[5] = tested on: S. aureus 011GO66 (PeniR); assay: as above; type: cell-based; details: compound at 5 mg/l, 24 hours at 37° C.; for MIC of Piperacillin in combination with the compound: Trial 1, 011GO66 peniR; for MIC of Cefotaxime in combination with the compound: Trial 1, 011GO66 S. aureus PeniR
Summary of the method: as §1

Serratia 301HT6 = assay: as above; type: cell-based; details: compound at 5 mg/l; Trial 10, 301HT6 Serratia; 24 hours at 37° C.
Summary of the method: as §1

[6] = 100 μM Nitrocefin, 50 mM sodium phosphate buffer pH7.0, 37° C., read-out: IC50 nM/P99

T1 sequence (P62593 24-286 limits assumed): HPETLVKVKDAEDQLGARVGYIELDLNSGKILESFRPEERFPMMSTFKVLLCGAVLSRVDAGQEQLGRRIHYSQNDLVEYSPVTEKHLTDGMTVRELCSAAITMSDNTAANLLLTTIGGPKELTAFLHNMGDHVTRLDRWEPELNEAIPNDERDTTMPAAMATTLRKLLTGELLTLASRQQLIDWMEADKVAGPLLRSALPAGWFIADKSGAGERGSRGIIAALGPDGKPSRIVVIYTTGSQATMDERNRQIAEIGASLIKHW
T2 sequence (P05364 21-381): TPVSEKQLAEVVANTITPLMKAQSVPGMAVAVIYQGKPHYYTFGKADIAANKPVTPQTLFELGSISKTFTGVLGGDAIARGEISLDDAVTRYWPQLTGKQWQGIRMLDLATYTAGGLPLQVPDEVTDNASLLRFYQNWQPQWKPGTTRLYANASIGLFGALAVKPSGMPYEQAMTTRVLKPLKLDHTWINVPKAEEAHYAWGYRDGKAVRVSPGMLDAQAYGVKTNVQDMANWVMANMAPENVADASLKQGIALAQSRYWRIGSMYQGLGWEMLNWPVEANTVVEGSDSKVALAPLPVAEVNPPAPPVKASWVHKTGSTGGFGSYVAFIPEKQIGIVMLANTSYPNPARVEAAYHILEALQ

SMILES | IC50 (β-lactamase TEM1) | IC50 (β-lactamase P99; [6]) | MIC of Piperacillin in combination with the compound (E. coli 250CF1 (Tem3)) | MIC of Piperacillin in combination with the compound [1] | MIC of Piperacillin in combination with the compound (E. coli 250BE1 (SHV4)) | MIC of Piperacillin in combination with the compound (E. coli 250HT21 (Tem1)) | MIC of Piperacillin in combination with the compound (E. coli 250HT22 (Tem2)) | MIC of Piperacillin in combination with the compound [2] | MIC of Piperacillin in combination with the compound (E. coli 250HT26 (SHV1)) | MIC of Piperacillin in combination with the compound (E. coli 250SJ1 (Tem7)) | MIC of Piperacillin in combination with the compound [3] | MIC of Piperacillin in combination with the compound [4] | MIC of Piperacillin in combination with the compound [5] | MIC of Piperacillin in combination with the compound (Serratia 301HT6) | IC50 (β-lactamase P99) | MIC of Cefotaxime in combination with the compound (E. coli 250CF1 (Tem3)) | MIC of Cefotaxime in combination with the compound [1] | MIC of Cefotaxime in combination with the compound (E. coli 250BE1 (SHV4)) | MIC of Cefotaxime in combination with the compound (E. coli 250HT21 (Tem1)) | MIC of Cefotaxime in combination with the compound (E. coli 250HT22 (Tem2)) | further results
NC(=O)C(NC(=O)[C@H]1CC[C@@H]2CN1C(=O)N2OS(=O)(=O)[O-])c1ccccc1.[Na+] (relative stereo) [Example 47, sodium salt of trans-N-(2-amino-2-oxo-1-phenylethyl)-7-oxo-6-(sulphooxy)-1,6-diazabicyclo[3.2.1]octane-2-carboxamide] | 18 nM | 43 nM | 5 µg/mL | >40 µg/mL | 5 µg/mL | 2.5 µg/mL | 20 µg/mL | 10 µg/mL | 2.5 µg/mL | 40 µg/mL | >40 µg/mL | >40 µg/mL | 0.6 µg/mL | 1.2 µg/mL | – | – | – | – | – | – | –
O=C(OCCc1ccccn1)[C@H]1CC[C@@H]2CN1C(=O)N2OS(=O)(=O)[O-].[Na+] (relative stereo) [Example 50, sodium salt of trans 2-(2-pyridinyl)ethyl 7-oxo-6-(sulphooxy)-1,6-diazabicyclo[3.2.1]octane-2-carboxylate] | 18 nM | 150 nM | 5 µg/mL | >40 µg/mL | 40 µg/mL | 2.5 µg/mL | 40 µg/mL | 40 µg/mL | 40 µg/mL | 40 µg/mL | >40 µg/mL | >40 µg/mL | 1.2 µg/mL | 0.6 µg/mL | – | – | – | – | – | – | –
O=C(NCc1cccnc1)C1CCC2CN1C(=O)N2OS(=O)(=O)O (stereo not drawn) [Example 43, sodium salt of trans-7-oxo-N-(3-pyridinylmethyl)-6-(sulphooxy)-1,6-diazabicyclo[3.2.1]octane-2-carboxamide] | 31 nM | – | 2.5 µg/mL | 2.5 µg/mL | 10 µg/mL | 1.2 µg/mL | 1.2 µg/mL | 2.5 µg/mL | 5 µg/mL | 5 µg/mL | >40 µg/mL | >40 µg/mL | 1.2 µg/mL | 0.6 µg/mL | 76 nM | 0.08 µg/mL | 0.08 µg/mL | <=0.04 μg/ml | <=0.04 μg/ml | <=0.04 μg/ml | MIC of Cefotaxime in combination with the compound [2]: <=0.04 μg/ml; MIC of Cefotaxime in combination with the compound (E. coli 250HT26 (SHV1)): <=0.04 μg/ml; MIC of Cefotaxime in combination with the compound (E. coli 250SJ1 (Tem7)): <=0.04 μg/ml; MIC of Cefotaxime in combination with the compound [3]: 20 µg/mL; MIC of Cefotaxime in combination with the compound [4]: 20 µg/mL; MIC of Cefotaxime in combination with the compound [5]: 2.5 µg/mL; MIC of Cefotaxime in combination with the compound (Serratia 301HT6): <=0.04 μg/ml
NC(=O)C(Cc1ccccc1)NC(=O)C1CCC2CN1C(=O)N2OS(=O)(=O)O (stereo not drawn) [Example 44, sodium salt of trans-N-(1-amino-1-oxo-3-phenyl-2-propyl)-7-oxo-6-(sulphooxy)-1,6-diazabicyclo[3.2.1]octane-2-carboxamide] | 59 nM | – | 40 µg/mL | >40 µg/mL | >40 µg/mL | 5 µg/mL | >40 µg/mL | 40 µg/mL | >40 µg/mL | >40 µg/mL | >40 µg/mL | >40 µg/mL | 2.5 µg/mL | >40 µg/mL | 100 nM | 0.3 µg/mL | >40 µg/mL | 0.6 µg/mL | <=0.04 μg/ml | 0.15 µg/mL | MIC of Cefotaxime in combination with the compound [2]: <=0.04 μg/ml; MIC of Cefotaxime in combination with the compound (E. coli 250HT26 (SHV1)): 0.08 µg/mL; MIC of Cefotaxime in combination with the compound (E. coli 250SJ1 (Tem7)): 0.08 µg/mL; MIC of Cefotaxime in combination with the compound [3]: >40 µg/mL; MIC of Cefotaxime in combination with the compound [4]: >40 µg/mL; MIC of Cefotaxime in combination with the compound [5]: 2.5 µg/mL; MIC of Cefotaxime in combination with the compound (Serratia 301HT6): 10 µg/mL
NC(=O)CNC(=O)C1CCC2CN1C(=O)N2OS(=O)(=O)O (stereo not drawn) [Example 45, sodium salt of trans-N-(2-amino-2-oxoethyl)-7-oxo-6-(sulphooxy)-1,6-diazabicyclo[3.2.1]octane-2-carboxamide] | 12 nM | – | 2.5 µg/mL | 1.2 µg/mL | 5 µg/mL | 1.2 µg/mL | 2.5 µg/mL | 10 µg/mL | 2.5 µg/mL | 2.5 µg/mL | >40 µg/mL | >40 µg/mL | 1.2 µg/mL | 0.6 µg/mL | 60 nM | – | – | – | – | – | –
